The target of assay [1] is T1, Carbonic anhydrase 12 (Homo sapiens, UniProt O43570). As to the kind of experiment: (§1) Inhibition of human recombinant carbonic anhydrase 12 preincubated for 15 mins at room temperature/6 hrs at 4 deg C by stopped-flow CO2 hydration assay. The note with it: 25 °C.
In assay [2] the target is T2, Carbonic anhydrase 1 (Homo sapiens, UniProt P00915). The experiment in a line: ChEBML_1523540. Particulars: 25 °C. The protocol:
Inhibition of human recombinant carbonic anhydrase 1 preincubated for 15 mins at room temperature/6 hrs at 4 deg C by stopped-flow CO2 hydration assay

For assay [3], the target named is T1, Carbonic anhydrase 12. The experiment in a line: ChEBML_1523544. Particulars: 25 °C. The protocol: as §1
For assay [4], the target named is T2, Carbonic anhydrase 1. The experiment in a line: Inhibition of human recombinant carbonic anhydrase 1.
Assay [5] addresses T3, Carbonic anhydrase 2 (Homo sapiens, UniProt P00918). As to the kind of experiment: (§2) Inhibition of human recombinant carbonic anhydrase 2 preincubated for 15 mins at room temperature/6 hrs at 4 deg C by stopped-flow CO2 hydration assay. The note with it: 25 °C.
For assay [6], the target named is T3, Carbonic anhydrase 2. The experiment in a line: ChEBML_1523541. Particulars: 25 °C. The protocol: as §2

Some results are limits rather than exact numbers.

This note sets out measurements from BindingDB's records for doi:10.1016/j.bmc.2015.10.018 (Aristotle University of Thessaloniki, 2015).

T1 sequence (O43570 whole entry): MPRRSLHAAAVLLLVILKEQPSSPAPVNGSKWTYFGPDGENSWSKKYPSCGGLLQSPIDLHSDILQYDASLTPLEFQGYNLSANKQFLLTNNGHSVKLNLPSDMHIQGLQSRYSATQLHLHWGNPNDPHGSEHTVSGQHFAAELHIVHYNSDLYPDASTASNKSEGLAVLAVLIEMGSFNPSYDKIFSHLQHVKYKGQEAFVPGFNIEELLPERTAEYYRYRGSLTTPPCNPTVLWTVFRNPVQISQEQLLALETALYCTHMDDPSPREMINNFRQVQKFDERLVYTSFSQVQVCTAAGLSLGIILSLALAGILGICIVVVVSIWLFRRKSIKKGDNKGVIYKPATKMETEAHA
T2 sequence (P00915 whole entry): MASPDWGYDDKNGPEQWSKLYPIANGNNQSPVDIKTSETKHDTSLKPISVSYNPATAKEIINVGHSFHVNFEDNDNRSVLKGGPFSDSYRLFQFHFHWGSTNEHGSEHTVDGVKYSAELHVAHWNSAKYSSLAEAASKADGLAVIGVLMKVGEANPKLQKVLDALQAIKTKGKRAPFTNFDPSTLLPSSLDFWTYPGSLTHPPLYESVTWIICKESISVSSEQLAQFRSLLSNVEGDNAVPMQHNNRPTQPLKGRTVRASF

Consider `O=c1cc(O)cc2oc(-c3ccc(O)c(O)c3)c(O[C@@H]3O[C@H](CO)[C@@H](O)[C@H](O)[C@H]3O)c(O)c1-2` [Quercetin 3-O-beta-D-glucoside], for which the inhibition constant Ki (usually a measure of affinity in units of concentration, obtained from inhibition or displacement) on Carbonic anhydrase 12 [1] is 52 nM; at Carbonic anhydrase 1 [2], > 10 µM; on Carbonic anhydrase 12 [3], 52.1 nM; at Carbonic anhydrase 1 [4], > 10 µM; on Carbonic anhydrase 2 [5] it was 6.21 µM; at Carbonic anhydrase 2 [6], 6.21 µM.
